From patent publication US10072304B2, “Nuclear localization of Src-family tyrosine kinases is required for growth factor-induced euchromatinization” (National University Corporation Chiba University, priority 2009, dated 2018)

How the values were obtained:
COS-1 cells [1] = assay: Quantitation of chromatin condensation levels (S.D. value of PI intensity per pixel) in COS-1 cells; format: cell-based, monkey
Procedure: COS-1, HeLa cells (Japanese Collection of Research Bioresources, Osaka), MCF-7 (provided by H. Saya), A431 (provided by M. N. Fukuda), HEK293 (provided by […]), HCT116 (provided by T. Tomonaga), and SYF ([37]; provided by M. Okada and S. Nada) cells were cultured in Iscove's modified DME containing 5% fetal bovine serum (FBS). Cells were transiently transfected with 0.5 μg of plasmid vector using Trans IT Transfection reagent (Mirus) or with 1 μg of plasmid vector using linear polyethylenimine (25 kDa) (Polyscience, Inc.). For growth factor stimulation, COS-1 cells were starved under low serum conditions (0.05% FBS) for 24 h and restimulated with serum (5% FBS). For stimulation of endogenous SFKs, cells were treated with 3 mM Na3VO4 for 3 h, and SFK-mediated tyrosine phosphorylation was verified by treatment with 10 μM PP2 (SFK inhibitor; Calbiochem) or 100 nM wortmannin (PI3K inhibitor; Alomone Labs) for 21 h before Na3VO4 treatment. Na3VO4 was dissolved at 500 mM in 500 mM unbuffered HEPES before use. For preparation of stable transfectant clones, SYF cells transfected with c-Src-wt or Lyn-wt were selected in 333 μg/mL Zeocin (Invitrogen), and COS-1 cells were transfected with the BOSH2BGFP-N1 vector, which encodes GFP-tagged histone H2B ([39,40]; provided by H. Saya), were selected in 3 μg/mL blasticidin. Confocal and Nomarski differential-interference-contrast images were obtained using a Fluoview FV500 confocal laser scanning microscope with a 40×1.00 NA oil and a 100×1.35 NA oil immersion objective (Olympus, Tokyo) and an LSM 510 confocal laser scanning microscope with a 63×1.40 NA oil immersion objective (Zeiss), as described. One planar (xy) section slice (0.6-μm thickness) is shown in all experiments. In brief, cells were fixed with 4% paraformaldehyde for 20 min, and permeabilized in phosphate-buffered saline (PBS) containing 0.1% saponin and 3% bovine serum albumin at room temperature. Cells were subsequently reacted with an appropriate primary antibody for 1 h, washed with PBS containing 0.1% saponin, stained with FITC- or TRITC-conjugated secondary antibody for 1 h. […] To ensure no bleed-through from the fluorescein signal into the red channel, fluorescein and rhodamine were independently excited at 488 nm and 543 nm, respectively. PI was excited at 488 or 543 nm. Emission signals were detected between 505 and 525 nm for fluorescein, at more than 560 nm for rhodamine and more than 610 nm for PI [44]. Composite figures were prepared using Photoshop 5.0 and Illustrator 9.0 software (Adobe). For nuclear staining with anti-pTyr, anti-ATF-2 […]/71, and anti-histone H3K4me3 antibodies, cells were in situ extracted with 0.5% Triton X-100 at 4° C. for 3 min before fixation with 4% paraformaldehyde. For HP1α staining, cells were fixed in 100% methanol at -20° C. for 10 min followed by permeabilization for 30 min in PBS containing 0.1% Triton X-100 at room temperature. Cells were reacted with anti-HP1α antibody for 1 h at room temperature, washed with PBS four times, and stained with secondary antibody for 1 h. Fluorescence intensity plots of anti-histone H3K4me3, anti-ATF-2 […]/71 and anti-HP1α antibody and PI staining (see FIGS. 18B, 19B, and 20B, respectively) were generated using Fluoview version 4.3 software (Olympus, Tokyo). For detection of the kinase activity of nuclear SFKs, purified nuclei suspended in kinase buffer (50 mM HEPES-NaOH, pH7.4, 5 mM MgCl2, 5 mM MnCl2 and 0.1 mM Na3VO4) were preincubated with or without 10 μM PP2 at 30° C. for 30 min, and subsequently incubated with 5 or 10 μM ATP at 30° C. for 30 min, followed by cytocentrifugation at 200×g for 5 min and fixation with 4% paraformaldehyde. DNA was stained with 20 μg/mL PI and 200 μg/mL RNase A for 30 min. Mean fluorescence intensity of tyrosine-phosphorylated proteins in the nucleus was measured using the ImageJ software (National Institutes of Health). Confocal images of PI-stained nuclei were obtained as described above. […]

COS-1 cells [2] = assay: Cell cycle analysis: DNA content by flow cytometry in COS-1 cells; format: cell-based, monkey; details: H2O2 at 1, 10 and 20 mM for 1 h, FIGS. 11A-11D
Procedure: To obtain S- and G2-phase cells, COS-1 cells grown in Iscove's modified DME containing 5% FBS were blocked at S phase by exposure to 3 mM thymidine for 18 h. Cells were washed free of thymidine with PBS, and cultured for further 2 or 5 h. Cells were detached by trypsinization, fixed in 1.5% paraformaldehyde at 4° C. for 1 h, and then permeabilized with 70% ethanol at −30° C. for more than 1 h. Fixed cells were washed twice with PBS containing 3% FBS, and treated with 200 μg/ml RNase A and 50 μg/ml PI at 37° C. for 30 min to stain DNA. Cell cycle phase was analyzed by flow cytometry using a MoFlo cell sorter equipped with a 488-nm argon laser (Beckman Coulter). Cells transfected with Lyn-HA or NLS-Lyn-HA were cultured for 36 h, fixed and permeabilized as described above. Fixed cells were washed with PBS containing 3% FBS, stained with anti-HA antibody for 1 h, washed with PBS and stained with FITC-conjugated secondary antibody for 1 h. After DNA staining with PI as described above, cell cycle phase was analyzed in cells expressing Lyn-HA or NLS-Lyn-HA.

OO [H2O2, hydrogen peroxide]
level of DNA condensation (S.D. value) (COS-1 cells [1]; COS-1, H2O2 at 1, 10 and 20 mM for 1 h, FIG. 12): corresponded to the degree of apoptosis | apoptotic SubG1 cells (histograms of DNA content) (COS-1 cells [2]): induction of apoptotic SubG1 cells in a dose-dependent manner

N#CC(=C(/N)Sc1ccccc1N)/C(C#N)=C(\N)Sc1ccccc1N [U0126]
basal levels of chromatin condensation (COS-1 cells [1]; cells not specified, U0126 concentration not given, data not shown): slightly decreased
